The values that follow come from ChEMBL document CHEMBL1649476, “In vitro chemosensitization of Plasmodium falciparum to antimalarials by verapamil and probenecid” (Antimicrob Agents Chemother, 2009).

For assay [1], the system named is Plasmodium falciparum. Put plainly: Antiplasmodial activity against multidrug-resistant Plasmodium falciparum VS/1 by [3H]hypoxanthine incorporation assay. It counts as functional, organism-based.
Assay [2] deals with Plasmodium falciparum. The assay can be described thus: Antiplasmodial activity against Plasmodium falciparum 3D7 by [3H]hypoxanthine incorporation assay. Type of assay: functional, organism-based.
Assay [3] has as its system Plasmodium falciparum. Put plainly: Selectivity ratio of IC50 for Plasmodium falciparum 3D7 to IC50 for multidrug-resistant Plasmodium falciparum VS/1. It counts as functional.
Assay [4] concerns Plasmodium falciparum. The assay can be described thus: Chemosensitization of chloroquine against multidrug-resistant Plasmodium falciparum VS/1 by [3H]hypoxanthine incorporation assay. It counts as functional.
Assay [5] deals with Plasmodium falciparum. The assay can be described thus: Chemosensitization of primaquine against multidrug-resistant Plasmodium falciparum VS/1 by [3H]hypoxanthine incorporation assay. Type of assay: functional.
The subject of assay [6] is Plasmodium falciparum. The assay can be described thus: Chemosensitization of amodiaquin against multidrug-resistant Plasmodium falciparum VS/1 by [3H]hypoxanthine incorporation assay. Type of assay: functional.
Assay [7] concerns Plasmodium falciparum. Put plainly: Chemosensitization of piperaquine against multidrug-resistant Plasmodium falciparum VS/1 by [3H]hypoxanthine incorporation assay. It counts as functional.
Assay [8] deals with Plasmodium falciparum. Put plainly: Chemosensitization of desethylamodiaquin against multidrug-resistant Plasmodium falciparum VS/1 by [3H]hypoxanthine incorporation assay. Type of assay: functional.
The subject of assay [9] is Plasmodium falciparum. The assay can be described thus: Chemosensitization of halofantrine against multidrug-resistant Plasmodium falciparum VS/1 by [3H]hypoxanthine incorporation assay. Type of assay: functional.
Assay [10] has as its system Plasmodium falciparum. The assay can be described thus: Chemosensitization of lumefantrine against multidrug-resistant Plasmodium falciparum VS/1 by [3H]hypoxanthine incorporation assay. It counts as functional.
In assay [11] the test system is Plasmodium falciparum. Put plainly: Chemosensitization of mefloquine against multidrug-resistant Plasmodium falciparum VS/1 by [3H]hypoxanthine incorporation assay. It counts as functional.
For assay [12], the system named is Plasmodium falciparum. The assay can be described thus: Chemosensitization of quinine against multidrug-resistant Plasmodium falciparum VS/1 by [3H]hypoxanthine incorporation assay. It counts as functional.
Assay [13] has as its system Plasmodium falciparum. Put plainly: Chemosensitization of chlorcycloguanil against multidrug-resistant Plasmodium falciparum VS/1 by [3H]hypoxanthine incorporation assay. It counts as functional.
Assay [14] concerns Plasmodium falciparum. Put plainly: Chemosensitization of pyrimethamine against multidrug-resistant Plasmodium falciparum VS/1 by [3H]hypoxanthine incorporation assay. It counts as functional.
Assay [15] concerns Plasmodium falciparum. Put plainly: Chemosensitization of methotrexate against multidrug-resistant Plasmodium falciparum VS/1 by [3H]hypoxanthine incorporation assay. It counts as functional.
Assay [16] concerns Plasmodium falciparum. The assay can be described thus: Chemosensitization of benzonaphthyridine pyronaridine against multidrug-resistant Plasmodium falciparum VS/1 by [3H]hypoxanthine incorporation assay. It counts as functional.
The subject of assay [17] is Plasmodium falciparum. Put plainly: Chemosensitization of sesquiterpene dihydroartemisinin pyronaridine against multidrug-resistant Plasmodium falciparum VS/1 by [3H]hypoxanthine incorporation assay. It counts as functional.

As for `CCN(CC)Cc1cc(Nc2ccnc3cc(Cl)ccc23)ccc1O`, inhibition in assay [1] was half-maximal at 8 nM (IC50).

For `CC1(C)N=C(N)N=C(N)N1c1ccc(Cl)c(Cl)c1` [CHLORCYCLOGUANIL], half-maximal inhibition in [1] (IC50) required 79 nM.

In the case of `CCNCc1cc(Nc2ccnc3cc(Cl)ccc23)ccc1O` [DESETHYL AMODIAQUINE], half-maximal inhibition in assay [1] (IC50) was put at 42 nM.

In assay [1], `CCCCN(CCCC)CCC(O)c1cc2c(Cl)cc(Cl)cc2c2cc(C(F)(F)F)ccc12` (configuration not stated) [HALOFANTRINE] had an IC50 of 9 nM. Against the preceding molecule, the IC50 is about 4.7-fold lower.

On to `CCCCN(CCCC)CC(O)c1cc(Cl)cc2c1-c1ccc(Cl)cc1/C2=C/c1ccc(Cl)cc1` (configuration not stated) [LUMEFANTRINE], for which the values for the IC50 in assay [1] and in assay [2] were 53 nM and 1690 nM, respectively. Further, the “Ratio IC50” value in assay [3] is 2.

On to `CN(Cc1cnc2nc(N)nc(N)c2n1)c1ccc(C(=O)N[C@@H](CCC(=O)O)C(=O)O)cc1` [METHOTREXATE], for which the IC50 in assay [1] is 63 nM.

`Clc1ccc2c(N3CCN(CCCN4CCN(c5ccnc6cc(Cl)ccc56)CC4)CC3)ccnc2c1` [PIPERAQUINE] gave an IC50 in assay [1] of 88 nM.

As for `COc1cc(NC(C)CCCN)c2ncccc2c1` (configuration not stated) [PRIMAQUINE], the IC50 in assay [1] and in [2] was 326 nM throughout. In addition, the “Ratio IC50” value in assay [3] is reported as 5.

Take `CCCN(CCC)S(=O)(=O)c1ccc(C(=O)O)cc1` [PROBENECID]: the FICI in assay [4] is given as 0.78 nM; in [5] it was 0.83 nM; in [6], 1.57 nM; in assay [7], 0.12 nM; in [8], 1.12 nM; in assay [9], 0.57 nM. For the same molecule, the FICI was 1.21 nM in [10]; 0.78 nM in [11]; 1.2 nM in assay [12]; 0.64 nM in assay [13]; 0.2 nM in assay [14]; 1.02 nM in assay [15]. The FICI in assay [16] is recorded as 5.9 nM; in assay [17], 1.12 nM.

`CCc1nc(N)nc(N)c1-c1ccc(Cl)cc1` [PYRIMETHAMINE] registered an IC50 in assay [1] of 5000 nM.

In the case of `C=C[C@H]1CN2CC[C@H]1C[C@H]2[C@H](O)c1ccnc2ccc(OC)cc12` [QUININE], the IC50 in assay [1] amounted to 133 nM.

With `COc1ccc(CCN(C)CCCC(C#N)(c2ccc(OC)c(OC)c2)C(C)C)cc1OC` (configuration not stated) [VERAPAMIL], the FICI in assay [4] is 0.52 nM; in assay [5] it was 0.71 nM; in [6] it was 1.4 nM; in assay [7], 1.13 nM; in assay [8], 0.47 nM; in assay [9], 1.1 nM. For the same molecule, the FICI in [10] was 0.55 nM; in assay [11], 1.12 nM; in assay [12], 0.39 nM; in [13] it was 1 nM; in [14] it was 1.07 nM; in assay [15] it was 1.33 nM. Besides, the FICI in assay [16] and in assay [17] was 1.07 nM throughout.
